Legend:
[1] = test system: DLD-1 (human colorectal cancer cells); assay: In vivo tumor growth inhibition, DLD-1 xenograft; set-up: species or system BALB/c nude mice; details: 5-fluorouracil 75 mg/kg once a week intravenous
Description: DLD-1 (human colorectal cancer cells): Female 6-8 weeks old BALB/c nude mice were inoculated subcutaneously on the right flank with DLD-1 tumor cells (5×10^6) in 0.1 ml of RPMI1640 medium without serum for tumor development. The treatments were started when the mean tumor size reached approximately 195 mm^3 at Day 7 post inoculation and continued until end of study by twice daily oral gavage dosing of HC-7366 at listed doses (vehicle, 0.3 mg/kg HC-7366, 1 mg/kg HC-7366, 3 mg/kg HC-7366, 10 mg/kg HC-7366, or 30 mg/kg HC-7366, FIG. 10). For the time course study, tumors were harvested at Days 4, 7 and 14. Tumors were then used for IHC and RNAseq experiments (see Example 21).
(§1) [formula] • 2.2.2 Tumor Measurements: The measurement of tumor size was conducted three times weekly with a caliper and recorded. The tumor volume (mm^3) was estimated using the formula: TV=a×b^2/2, where “a” and “b” is long and short diameters of a tumor, respectively. Tumor volume was calculated using the formula [tumor volume (mm^3)=π/6×length×width^2).
(§2) Regression was calculated using the formula=100×ΔT/T initial, if ΔT<0. Animals with 0 mm^3 tumor volume (no measurable tumor) for three consecutive measurements were considered as complete responders and animals with 50% tumor regressions were partial responders.
(§3) The effect of DC101 in combination with HC-7366 in DLD-1 tumor-bearing mice was evaluated using protocols analogous to those described in Example 6. Mice were treated with 3 or 30 mg/kg HC-7366, twice daily by oral gavage. DC101 was administered at 20 mg/kg twice weekly and with twice daily dosing via intraperitoneal injection.
as §3, with “5-fluorouracil” for “DC101”, “75” for “20”, “once a week,” for “twice weekly and with”, “daily” for “daily dosing”, “intravenous” for “intraperitoneal”

[2] = test system: MFE280 (human endometrial cancer cells); assay: In vivo tumor growth inhibition, MFE280 xenograft; set-up: species or system Athymic Nude-Foxn1nu mice; details: PT2977 1 mg/kg twice daily oral
[3] = test system: 786-O (human renal cell carcinoma cancer cells); assay: In vivo tumor growth inhibition, 786-O xenograft; set-up: species or system BALB/c nude mice; details: PT-2977 single agent, 0.1 mg/kg twice a day oral
Description: 786-O (human renal cell carcinoma cancer cells): Female 6-8 weeks old BALB/c nude mice were inoculated subcutaneously on the right flank with 786-O tumor cells (5×10^6) in 0.1 ml of RPMI1640 medium without serum for tumor development. […] For the DC101 combination study, DC101 (murine monoclonal anti-VEGFR2 antibody) was dosed at 15 mg/kg twice a week by intraperitoneal injection.
as §1, §2
Female 6-8 weeks old BALB/c nude mice were inoculated subcutaneously on the right flank with 786-O tumor cells (5×10^6) in 0.1 ml of RPMI1640 medium without serum for tumor development (see Example 6). […]

[4] = test system: NCI-H1975 (human non-small cell lung cancer cells); assay: In vivo tumor growth inhibition, NCI-H1975 xenograft; set-up: species or system Athymic Nude-Foxn1nu mice
Description: NCI-H1975 (human non-small cell lung cancer cells): Female 7-8 weeks old Athymic Nude-Foxn1nu mice were inoculated subcutaneously on the right flank with NCI-H1975 tumor cells (2.5×10^6) in 0.1 ml of RPMI1640 medium without serum for tumor development. Single agent HC-7366 was dosed at 3 mg/kg, osimertinib at 2.5 mg/kg and dacomitinib at 15 mg/kg. HC-7366 was combined with either osimertinib or dacomitinib. The vehicle for the groups was 0.5% methyl cellulose. The treatments were started when the mean tumor size reached approximately 205 mm^3 at Day 22 post inoculation and continued until end of study. HC-7366 was given twice daily by oral gavage whereas osimertinib or dacomitinib were administered once a day by oral gavage (FIGS. 131 and 133).
as §1, §2

[5] = test system: GCN2 pathway (p-GCN2, ATF4) in HT1080 cells; assay: Western blot analysis of HT1080 cell lysates; type: cell-based, human; details: 100 nM Halofuginone
Description: The HT1080 cells were harvested and counted and diluted to the desired density. 2 mL of cell suspension was added into each well of 6-well cell culture plate. The plates were transferred into 37° C., 5% CO2 incubator overnight. The cells were treated as described above. The media was aspirated, and cells were washed with ice cold phosphate buffered saline (PBS). Ice cold 1× radioimmunoprecipitation assay (RIPA) lysis buffer supplemented with protease and phosphatase inhibitors was added to the cell pellets, on ice. After 30 min on ice the cell lysates were centrifuged at 4° C., 12,000 rpm for 15 minutes and the supernatant collected. Protein concentration was determined using BCA kit. The cell lysates were mixed with 5× sodium dodecyl sulfate (SDS) loading buffer and denatured at 95° C. for 5 minutes. […] After the electrophoresis was completed, the separated protein was transferred to a nitrocellulose membrane using transblot system for 90 min, 300 mA, then the membrane was blocked with (tris-buffered saline) TBS buffer (5% bovine serum albumin (BSA)) for 1 hr at room temperature. The membrane was exposed to the primary antibodies overnight in cold room in TBS buffer (1% BSA). The membrane was then washed with TBS-Tween for 3×10 min at R/T, incubated with secondary antibodies in TBS buffer (1% BSA) for 1 hr at RT. The membrane was washed with TBS-Tween for 3×10 min at R/T and the imaging was acquired with Li—COR imaging system.

[6] = test system: MV4-11 (human AML cancer cells); assay: In vivo tumor growth inhibition, MV4-11 xenograft; set-up: species or system BALB/c nude mice; details: venetoclax monotherapy, 50 mg/kg once daily
Description: MV4-11 (human AML cancer cells): Female 6-8 weeks old BALB/c nude mice were inoculated subcutaneously on the right flank with MV4-11 tumor cells (1×10^7) in RPMI 1640 without serum for tumor development. The treatments were started when the mean tumor size reached approximately 150 mm^3 at Day 13 after cell inoculation and continued until end of study by twice daily oral gavage dosing of HC-7366 at listed doses (vehicle, 0.3 mg/kg HC-7366, 1 mg/kg HC-7366, 3 mg/kg HC-7366, 10 mg/kg HC-7366, or 30 mg/kg HC-7366, FIG. 20). For venetoclax combination study, venetoclax was dissolved in 0.5% carboxymethylcellulose (CMC) and co-administered at 50 mg/kg dose once daily (see Example 8).
as §1, §2
MV4-11 tumors were collected at the end of the venetoclax combination study described in Example 6. Tumor growth curves are provided of MV4-11 tumors treated with single agent HC-7366 and venetoclax or combination (FIG. 43).

O=c1[nH]cc(F)c(=O)[nH]1 [5-fluorouracil, reference compound]
TGI % [1]: ~68%

CS(=O)(=O)c1ccc(Oc2cc(F)cc(C#N)c2)c2c1[C@H](O)[C@H](F)[C@@H]2F [PT-2977, belzutifan, reference compound]
tumor growth inhibition [2]: 53%
TGI % [3]: ~70%

COc1cc2ncnc(Nc3ccc(F)c(Cl)c3)c2cc1NC(=O)/C=C/CN1CCCCC1 [dacomitinib]
TGI % ([4]; dacomitinib alone 15 mg/kg once a day, end of the study, without statistical significance): 36%

O=C(CC1NCCCC1O)Cn1cnc2cc(Br)c(Cl)cc2c1=O (centres unmarked) [halofuginone, reference compound]
GCN2 and ATF4 in cells treated with halofuginone [5]: activation of GCN2 and ATF4

C=CC(=O)Nc1cc(Nc2nccc(-c3cn(C)c4ccccc34)n2)c(OC)cc1N(C)CCN(C)C [osimertinib]
partial response (animals/group) ([4]; 50% tumor regressions, doses as in study): 1/10
TGI ([4]; osimertinib 2.5 mg/kg once a day oral): 95%

CC1(C)CCC(CN2CCN(c3ccc(C(=O)NS(=O)(=O)c4ccc(NCC5CCOCC5)c([N+](=O)[O-])c4)c(Oc4cnc5[nH]ccc5c4)c3)CC2)=C(c2ccc(Cl)cc2)C1 [venetoclax, reference compound]
TGI [6]: 62%
